Activity calls are given as the source filed them.
How the values were obtained:
[1] = biological target: T1, Polyadenylate-binding protein 1 (Homo sapiens, UniProt P11940); experiment: PABP1 MLLE–PAM2 interaction inhibitors, dose response, miRNA deadenylation inhibitor project, biochemical, fluorescence polarization, Cy5-PAM2 peptide, secondary (AID 602260); type: functional; settings: read-out: IC50_Mean
[2] = biological target: T1, Polyadenylate-binding protein 1; experiment: PABP1 MLLE–PAM2 binding inhibitor potency, dose response, biochemical, fluorescence polarization, FITC-PAM2 peptide (AID 602259); type: functional; settings: read-out: IC50_Mean
[3] = biological target: T2, Protein RecA (Mycobacterium tuberculosis, UniProt P9WHJ3); experiment: Fluorescence Cell-Free Homogeneous Dose Retest to Identify Inhibitors of RecA-Intein Splicing Activity. [Related pubchem assays (depositor defined):AID2097, AID2223, AID489010, AID492950]; type: functional
T2 sequence (P9WHJ3 whole entry): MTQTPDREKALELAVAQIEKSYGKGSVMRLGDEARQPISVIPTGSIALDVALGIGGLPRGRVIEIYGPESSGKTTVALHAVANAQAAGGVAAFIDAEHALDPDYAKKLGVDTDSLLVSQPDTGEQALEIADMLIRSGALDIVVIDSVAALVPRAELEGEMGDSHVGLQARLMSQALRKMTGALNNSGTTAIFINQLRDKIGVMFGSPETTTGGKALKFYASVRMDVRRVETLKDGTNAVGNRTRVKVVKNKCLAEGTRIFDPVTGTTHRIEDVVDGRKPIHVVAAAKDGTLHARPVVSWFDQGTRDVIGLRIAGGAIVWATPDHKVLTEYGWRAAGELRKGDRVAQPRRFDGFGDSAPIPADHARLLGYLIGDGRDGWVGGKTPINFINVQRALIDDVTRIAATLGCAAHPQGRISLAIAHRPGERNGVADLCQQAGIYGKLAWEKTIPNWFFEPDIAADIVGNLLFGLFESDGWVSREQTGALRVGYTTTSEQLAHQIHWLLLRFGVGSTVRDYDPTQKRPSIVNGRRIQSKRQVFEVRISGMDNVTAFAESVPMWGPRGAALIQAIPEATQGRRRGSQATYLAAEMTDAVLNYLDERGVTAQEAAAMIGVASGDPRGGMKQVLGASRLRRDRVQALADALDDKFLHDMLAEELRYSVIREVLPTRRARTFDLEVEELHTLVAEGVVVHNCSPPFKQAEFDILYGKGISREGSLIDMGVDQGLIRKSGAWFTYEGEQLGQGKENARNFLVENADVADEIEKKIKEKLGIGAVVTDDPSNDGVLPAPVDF

[4] = biological target: T3, Replicative DNA helicase DnaB (Mycobacterium tuberculosis, UniProt P9WMR3); experiment: DnaB intein splicing inhibitors, dose response, biochemical, cell-free fluorescence (AID 449749); type: functional
T3 sequence (P9WMR3 whole entry): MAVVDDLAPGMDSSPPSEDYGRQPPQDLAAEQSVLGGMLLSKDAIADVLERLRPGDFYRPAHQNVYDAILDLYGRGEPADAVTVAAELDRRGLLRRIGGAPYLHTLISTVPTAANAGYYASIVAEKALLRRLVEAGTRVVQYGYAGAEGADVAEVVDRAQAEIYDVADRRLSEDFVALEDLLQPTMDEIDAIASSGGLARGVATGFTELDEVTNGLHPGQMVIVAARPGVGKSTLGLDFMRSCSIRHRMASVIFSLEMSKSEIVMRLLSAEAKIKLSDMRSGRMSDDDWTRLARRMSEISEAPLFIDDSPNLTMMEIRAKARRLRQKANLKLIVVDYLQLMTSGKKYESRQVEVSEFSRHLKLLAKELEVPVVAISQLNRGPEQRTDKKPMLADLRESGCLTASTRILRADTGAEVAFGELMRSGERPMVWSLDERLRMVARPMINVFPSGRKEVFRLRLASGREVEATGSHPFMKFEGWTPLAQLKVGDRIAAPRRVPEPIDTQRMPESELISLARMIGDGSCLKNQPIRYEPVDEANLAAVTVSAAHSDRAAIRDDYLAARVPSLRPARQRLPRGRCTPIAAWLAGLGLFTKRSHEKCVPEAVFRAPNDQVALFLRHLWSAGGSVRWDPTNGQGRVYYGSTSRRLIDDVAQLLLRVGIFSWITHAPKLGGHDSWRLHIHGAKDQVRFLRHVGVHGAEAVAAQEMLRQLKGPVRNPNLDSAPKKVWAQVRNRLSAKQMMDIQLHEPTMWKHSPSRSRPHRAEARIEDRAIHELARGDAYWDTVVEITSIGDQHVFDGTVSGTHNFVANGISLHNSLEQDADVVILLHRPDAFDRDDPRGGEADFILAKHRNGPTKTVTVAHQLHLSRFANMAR

[5] = tested on: Streptococcus; experiment: Group A Streptococcus viability loss, dose response, counter-screen for streptokinase expression inhibitor project, luminescence, BacTiterGlo (AID 1915); type: functional, organism-based;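 further: potency for reduction of bacterial viability or growth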
[6] = biological target: T4, Streptokinase A (Streptococcus pyogenes serotype M1, UniProt P10520); experiment: S. pyogenes streptokinase expression inhibitors, potency, dose response, plasminogen activation absorbance, OD405 (AID 1914); type: functional, Streptococcus pyogenes M1 GAS;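 further: secreted streptokinase activity via plasminogen activation per viability signal from cell pellet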
T4 sequence (P10520 whole entry): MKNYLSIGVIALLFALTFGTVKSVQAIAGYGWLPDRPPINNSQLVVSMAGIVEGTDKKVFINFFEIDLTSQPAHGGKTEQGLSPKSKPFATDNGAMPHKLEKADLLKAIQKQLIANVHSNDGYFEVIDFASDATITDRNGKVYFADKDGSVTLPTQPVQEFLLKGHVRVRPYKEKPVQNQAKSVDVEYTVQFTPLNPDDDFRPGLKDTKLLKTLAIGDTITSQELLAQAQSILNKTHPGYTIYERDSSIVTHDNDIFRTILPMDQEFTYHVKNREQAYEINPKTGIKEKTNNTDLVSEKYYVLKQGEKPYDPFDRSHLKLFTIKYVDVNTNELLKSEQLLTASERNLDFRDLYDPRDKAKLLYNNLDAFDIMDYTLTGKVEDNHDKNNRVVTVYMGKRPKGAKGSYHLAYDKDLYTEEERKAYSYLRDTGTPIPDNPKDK

[7] = biological target: T5, Protein skinhead-1 (Caenorhabditis elegans, UniProt P34707); type: functional
T5 sequence (P34707 whole entry): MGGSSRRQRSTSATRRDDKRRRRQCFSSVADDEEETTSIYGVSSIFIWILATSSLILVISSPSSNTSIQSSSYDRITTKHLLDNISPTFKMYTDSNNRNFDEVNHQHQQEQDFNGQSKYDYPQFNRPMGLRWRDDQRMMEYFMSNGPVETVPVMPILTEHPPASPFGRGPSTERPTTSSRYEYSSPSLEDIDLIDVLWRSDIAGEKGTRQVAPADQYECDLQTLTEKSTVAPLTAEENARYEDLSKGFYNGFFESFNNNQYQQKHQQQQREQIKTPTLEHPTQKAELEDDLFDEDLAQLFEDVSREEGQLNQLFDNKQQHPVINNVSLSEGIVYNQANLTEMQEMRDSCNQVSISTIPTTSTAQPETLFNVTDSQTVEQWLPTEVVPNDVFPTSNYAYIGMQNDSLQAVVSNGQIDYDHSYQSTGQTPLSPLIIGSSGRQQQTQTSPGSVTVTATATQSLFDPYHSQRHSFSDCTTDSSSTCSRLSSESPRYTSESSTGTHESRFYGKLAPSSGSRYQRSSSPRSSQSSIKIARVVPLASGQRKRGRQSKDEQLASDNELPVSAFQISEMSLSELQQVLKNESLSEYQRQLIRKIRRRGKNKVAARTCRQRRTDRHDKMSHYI

[8] = tested on: Streptococcus sp. 'group A'; experiment: growth inhibition of control SK(-) GAS strain, dose response, counter-screen for streptokinase expression inhibitor project, luminescence, kanamycin, BacTiterGlo, confirmation (AID 1900); type: functional, organism-based
[9] = P. falciparum Dd2 growth inhibitors, dose response, SYBR Green, cherry-picked samples (AID 1159567); type: functional, cell-based
[10] = biological target: Cytochrome P450 2D6 (Homo sapiens, UniProt P10635);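 further: CYP2D6 member of a cytochrome P450 panel assay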
Chain of Cytochrome P450 2D6 (P10635 whole entry): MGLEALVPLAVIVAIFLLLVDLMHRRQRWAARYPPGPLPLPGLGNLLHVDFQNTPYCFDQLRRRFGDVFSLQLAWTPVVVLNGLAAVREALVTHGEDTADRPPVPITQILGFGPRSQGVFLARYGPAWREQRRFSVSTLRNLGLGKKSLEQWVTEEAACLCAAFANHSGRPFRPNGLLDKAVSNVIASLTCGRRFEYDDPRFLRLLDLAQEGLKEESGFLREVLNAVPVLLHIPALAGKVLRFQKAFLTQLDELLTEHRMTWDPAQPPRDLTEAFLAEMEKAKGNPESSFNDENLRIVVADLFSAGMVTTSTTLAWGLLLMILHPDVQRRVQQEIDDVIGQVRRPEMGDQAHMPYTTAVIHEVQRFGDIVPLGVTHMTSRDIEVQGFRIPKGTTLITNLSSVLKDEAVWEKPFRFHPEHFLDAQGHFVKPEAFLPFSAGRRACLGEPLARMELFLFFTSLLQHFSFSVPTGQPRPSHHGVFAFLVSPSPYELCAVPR

[11] = biological target: T6, Cytochrome P450 1A2 (Homo sapiens, UniProt P05177);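 further: PubChem cytochrome P450 panel assay, CYP1A2 panel member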
T6 sequence (P05177 whole entry): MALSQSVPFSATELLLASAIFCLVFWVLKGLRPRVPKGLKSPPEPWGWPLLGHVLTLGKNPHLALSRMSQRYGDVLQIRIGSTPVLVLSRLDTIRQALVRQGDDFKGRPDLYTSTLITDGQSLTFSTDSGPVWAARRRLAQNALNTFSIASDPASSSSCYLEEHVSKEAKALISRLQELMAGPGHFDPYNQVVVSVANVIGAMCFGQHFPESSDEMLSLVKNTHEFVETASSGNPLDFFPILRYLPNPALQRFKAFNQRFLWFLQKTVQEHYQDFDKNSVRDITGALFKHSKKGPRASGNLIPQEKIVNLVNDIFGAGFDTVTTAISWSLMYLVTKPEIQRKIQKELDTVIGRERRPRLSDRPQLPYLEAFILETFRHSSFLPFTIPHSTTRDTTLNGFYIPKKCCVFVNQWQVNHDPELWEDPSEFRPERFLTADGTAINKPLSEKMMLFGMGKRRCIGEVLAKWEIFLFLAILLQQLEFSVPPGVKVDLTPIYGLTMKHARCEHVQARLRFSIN

[12] = biological target: Cytochrome P450 3A4 (Homo sapiens, UniProt P08684);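 further: CYP3A4 tested as one member of a cytochrome P450 panel screen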
Chain of Cytochrome P450 3A4 (P08684 whole entry): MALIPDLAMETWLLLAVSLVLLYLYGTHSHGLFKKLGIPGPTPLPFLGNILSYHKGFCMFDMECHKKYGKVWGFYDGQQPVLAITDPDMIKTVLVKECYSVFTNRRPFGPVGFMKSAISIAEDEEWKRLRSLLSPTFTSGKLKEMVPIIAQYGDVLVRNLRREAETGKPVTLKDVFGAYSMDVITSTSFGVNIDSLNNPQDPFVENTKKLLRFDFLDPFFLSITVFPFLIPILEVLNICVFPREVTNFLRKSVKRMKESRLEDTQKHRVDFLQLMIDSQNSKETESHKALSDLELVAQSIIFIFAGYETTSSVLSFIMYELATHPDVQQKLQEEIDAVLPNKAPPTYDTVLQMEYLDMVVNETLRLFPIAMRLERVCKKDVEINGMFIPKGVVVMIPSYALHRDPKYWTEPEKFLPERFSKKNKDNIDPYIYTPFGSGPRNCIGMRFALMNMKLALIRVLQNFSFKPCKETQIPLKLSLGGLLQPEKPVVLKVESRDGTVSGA

[13] = biological target: T7, Heat shock factor protein 1 (Mus musculus, UniProt P38532); experiment: inhibition of MG132-induced HSE-luciferase signal, confirmation, cell-based, NIH3T3, luminescence, dose retest (AID 2382); type: functional;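 further: NIH3T3 fibroblasts with HSF1-driven luciferase reporter stressed by proteasome inhibitor MG132; luminescence from HSF1-driven luciferase expression after 8 hours of MG132 stress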
T7 sequence (P38532 whole entry): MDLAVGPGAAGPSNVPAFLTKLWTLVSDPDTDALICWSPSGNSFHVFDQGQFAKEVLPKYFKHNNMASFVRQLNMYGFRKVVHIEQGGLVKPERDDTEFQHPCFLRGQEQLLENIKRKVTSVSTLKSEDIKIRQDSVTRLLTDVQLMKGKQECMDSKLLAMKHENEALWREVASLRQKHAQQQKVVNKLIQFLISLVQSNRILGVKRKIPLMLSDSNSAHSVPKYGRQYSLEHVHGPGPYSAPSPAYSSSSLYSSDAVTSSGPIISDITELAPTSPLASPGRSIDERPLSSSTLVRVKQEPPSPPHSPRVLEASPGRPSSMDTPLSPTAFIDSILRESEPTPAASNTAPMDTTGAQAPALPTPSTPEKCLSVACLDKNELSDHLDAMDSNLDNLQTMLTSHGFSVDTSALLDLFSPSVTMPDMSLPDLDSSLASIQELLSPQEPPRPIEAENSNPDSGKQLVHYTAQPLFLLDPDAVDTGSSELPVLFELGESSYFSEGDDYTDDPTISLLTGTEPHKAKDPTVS

[14] = cytotoxicity toward NIH3T3 fibroblasts, dose response, counter-screen, cell-based, ATP luminescence, mouse fibroblasts (AID 2010); type: functional;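 further: cells exposed to compound for about 90 hours before reading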
[15] = inhibitors of intracellular T. cruzi replication, confirmation, NIH3T3 host cells, beta-gal luminescence (AID 2044); type: functional, cell-based;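 further: intracellular parasites grown in NIH/3T3 mouse fibroblasts as host cells; luminescent beta-galactosidase reporter signal from transgenic T. cruzi replicating inside host cells; inhibitors lower the luminescence signal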

T1 sequence (P11940 whole entry): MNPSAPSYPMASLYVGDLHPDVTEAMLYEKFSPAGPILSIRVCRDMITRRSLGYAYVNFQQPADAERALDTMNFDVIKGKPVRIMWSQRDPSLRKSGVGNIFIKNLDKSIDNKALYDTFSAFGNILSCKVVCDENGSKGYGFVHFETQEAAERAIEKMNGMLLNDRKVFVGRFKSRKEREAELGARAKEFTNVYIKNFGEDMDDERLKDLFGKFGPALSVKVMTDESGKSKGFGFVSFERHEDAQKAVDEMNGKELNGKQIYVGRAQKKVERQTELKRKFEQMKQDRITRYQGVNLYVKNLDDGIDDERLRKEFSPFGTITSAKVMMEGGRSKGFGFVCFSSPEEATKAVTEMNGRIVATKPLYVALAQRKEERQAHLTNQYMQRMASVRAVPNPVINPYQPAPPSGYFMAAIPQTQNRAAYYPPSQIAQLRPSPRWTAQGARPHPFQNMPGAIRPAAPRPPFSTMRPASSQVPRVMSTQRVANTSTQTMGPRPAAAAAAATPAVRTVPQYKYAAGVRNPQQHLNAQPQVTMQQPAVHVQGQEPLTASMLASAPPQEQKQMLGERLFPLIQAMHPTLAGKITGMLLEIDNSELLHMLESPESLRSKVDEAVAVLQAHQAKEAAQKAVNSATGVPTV

## Fc1ccc(SCCc2ccncc2)cc1
[1]
  IC50: > 66 µM (inactive)
[2]
  IC50: > 66 µM (inactive)

## COc1cc(/C=C(\C#N)c2nc3ccccc3o2)ccc1O
[3]
  EC50: 2.41 µM (active)
[4]
  AC50: > 380 µM (inactive)

## Cc1c(C)n(Cc2ccc(F)cc2)c2ccc(C(=O)N3CCN(c4ccccn4)CC3)cc12
[5]
  EC50: 28.4 µM (active)
[6]
  EC50: 146 µM (inconclusive)
[7]
  IC50: > 100 µM (inactive)
[8]
  EC50: 16.5 µM (active)

## O=C(CSc1nc[nH]n1)Nc1ccc(Cl)c(Cl)c1
[7]
  IC50: > 100 µM (inactive)

## Cc1ccccc1S(=O)(=O)N1CC(=O)N2[C@H](CO)[C@H](c3ccc(C#CC4CC4)cc3)[C@@H]2C1
[9]
  AC50: 8.89 µM (active)

## O=C(CSc1nc2ccccc2c(=O)n1CCCO)NCc1ccccc1
[10]
  AC50: 39.8 µM (inconclusive)
[1]
  IC50: > 66 µM (inactive)
[11]
  AC50: 31.6 µM (inconclusive)
[12]
  AC50: 3.55 µM (inconclusive)
[2]
  IC50: > 66 µM (inactive)

## CC(C)c1nc(SCC(=O)Nc2ccc(N3CCOCC3)cc2)c2ccccc2n1
[1]
  IC50: > 66 µM (inactive)
[2]
  IC50: > 66 µM (inactive)

## CC1(Cc2cccc(C(F)(F)F)c2)C(=O)Nc2ccc(-c3ccc(F)c(Cl)c3)cc21 (stereo not drawn)
[7]
  IC50: > 100 µM (inactive)

## CCC(=O)Nc1ccc2c(c1)OC[C@@H](C)N(Cc1cccc(F)c1)C[C@@H](C)[C@H](OC)CN(C)C2=O
[9]
  AC50: 3.64 µM (active)

## O=C(Nc1cccc(F)c1)N1CC(=O)N2[C@H](C1)[C@@H](c1ccc(C#CC3CC3)cc1)[C@@H]2CO
[9]
  AC50: 8.07 µM (active)

## C[C@H](CO)N1C[C@H](C)[C@H](CN(C)S(=O)(=O)c2cccs2)OCc2ccccc2-c2c(n(C)c3ccccc23)C1=O
[9]
  AC50: 26.1 µM (active)

## Cc1c(NC(=O)Oc2ccccc2)sc(=S)n1C
[1]
  IC50: > 66 µM (inactive)
[2]
  IC50: > 66 µM (inactive)

## O=[N+]([O-])c1cccc(NC(S)=Nc2nc(-c3ccccc3Cl)cs2)c1
[1]
  IC50: > 66 µM (inactive)
[2]
  IC50: > 66 µM (inactive)

## Cn1nccc1-c1ccc(C(=O)Nc2cccc(NS(C)(=O)=O)c2)c2occc12
[7]
  IC50: > 100 µM (inactive)

## C[C@H](CO)N1C[C@H](C)[C@@H](CN(C)CC2CCCCC2)Oc2ccc(NC(=O)Nc3ccc(F)cc3)cc2CC1=O
[9]
  AC50: 6.76 µM (active)

## Fc1ccc2c(c1)c1nnc(S)nc1n2CCc1ccccc1
[1]
  IC50: > 66 µM (inactive)
[2]
  IC50: > 66 µM (inactive)

## COC(=O)C(C#N)C(c1cccnc1)c1c(C)n[nH]c1O (stereo not drawn)
[3]
  EC50: 1.2 µM (active)
[4]
  AC50: 3.08 µM (active)

## O=C(CCl)N1N=C(c2cccs2)CC1c1ccco1 (stereo not drawn)
[3]
  EC50: 4.21 µM (active)
[13]
  EC50: 6.29 µM (active)
[14]
  EC50: 4.92 µM (active)
[15]
  EC50: 1.98 µM (active)
[4]
  AC50: 25.1 µM (active)

## O=C(CSc1nnc(COc2cccc3ccccc23)o1)N1c2ccccc2CCc2ccccc21
[7]
  IC50: > 100 µM (inactive)

## Cc1cc2ccccc2n1CCNC(=O)C1CC1
[7]
  IC50: > 100 µM (inactive)

From ChEMBL document CHEMBL1201862, “PubChem BioAssay data set” (2004)
